What all share (assay type): cell-based, human
Test [1] deals with ERα interaction with IGF-1Rβ, Shc; AKT and MAPK. Nature of the test: Non-genomic activation route, immunoblotting, KPL-3C. On the procedure: FIG. 9-1 is a diagram illustrating that ERAP1-peptide treatment suppresses the non-genomic activation route. […] The cell lysate of the ERα-positive breast cancer cell lines shown in the figure was subjected to immunoblotting analysis using the antibodies shown in the figure. […] KPL-3C cells were treated with the ERAP1-peptide and/or E2 for 24 hours. Then the nuclear fraction was immunoprecipitated with anti-ERα antibody.
FIG. 9-2 is a diagram illustrating that ERAP1-peptide treatment suppresses the non-genomic activation route. […] The cells (C and D) or BT474 cells (E) Were treated with the ERAP1-peptide. Then, the phosphorylation levels of Akt (C). MAPK (C) and ERα (D and E) were evaluated with Western blotting. The relative phosphorylation levels were quantified by densitometry analysis, and the ratio to the value at 0 hour for non-treated cells was calculated.
In general terms: In western blotting, separated proteins are transferred to a membrane and probed.

For test [2], the system named is MCF-7 cells. Nature of the test: E2-dependent cell proliferation assay (MTT/CCK-8), MCF-7. On the procedure:
FIG. 6-1 is a diagram illustrating that ERAP1-peptide treatment suppresses ERα-dependent cell proliferation of breast cancer cell lines. (A) and (B) show the results of MTT assay by which the inhibition effect of the ERAP1-peptide in the E2-dependent cell proliferation was evaluated. MCF-7 cells were treated with the ERAP1-peptide (A, B) the ERAP1-scramble peptide (B) or the ERAP1-mutant peptide (B).
FIG. 7-1 is a diagram illustrating that ERAP1-peptide treatment suppresses ERα-dependent cell proliferation of breast cancer cell lines. […] KPL-3C cells were treated with the ERAP1-peptide, the scramble peptide or the mutant peptide. Then, immediately, the cells were stimulated with 10 nM E2 for 24 hours. […] Then, immediately, the cells were stimulated with 10 nM E2. Then, the ERAP1-peptide was added every day for […]. […] The arrow indicates addition of the ERAP1-peptide.
FIG. 7-3 is a diagram illustrating that ERAP1-peptide treatment suppresses ERα-dependent cell proliferation of breast cancer cell lines. […] MCF-7 cells were treated with 10 μM ERAP1-peptide. Then, immediately, the cells were stimulated with 10 nM E2 (white square). Then, 10 μM ERAP1-peptide was added every day for four days (black square).
FIG. 20 is a diagram illustrating the results of evaluations for the influence of the difference of the sequence on E2-dependent cell proliferation suppression effect. […] Then, immediately, the cells were stimulated with E2 for 24 hours.
MCF-7 cells were suspended in MEM (Invitrogen, Carlsbad, Calif., USA) reinforced with 10% FBS (Nichirei Biosciences, Tokyo, Japan), 1% antibiotic/antimycotic solution (Invitrogen), 0.1 mM NEAA (Tnvitrogen), 1 mM sodium pyruvate and 10 μg/ml insulin (Sigma, St. Louis, Mo., USA). Then, the cell suspension was seeded in a 48-well plate (2×10^4 cells/200 μl), a 24-well plate (1×10^5 cells/1 ml), a 6-well plate (5×10^5 cells/2 ml) or 10 cm dish (2×10^6 cells/10 ml). The cells were maintained at 37° C. in humidified atmosphere containing 5% carbon dioxide. On the next day of the seeding, the culture medium was exchanged with phenol red-free DMEM/F12 (Invitrogen) reinforced with FBS, an antibiotic/antimycotic solution, NEAA, sodium pyruvate and insulin. After 24 hours, the cells were treated with 10 nM 17β estradiol (E2, Sigma). The ERAP-1 peptide was added just before the E2 stimulation in the inhibition test.
Using Cell-Counting Kit-8 (CCK-8, Dojindo, Kumamoto, Japan), the cell proliferation assay was performed. […] Then, the absorbance at 450 nm was measured and the number of living cells in each well was calculated.
The cell proliferation assay was evaluated using Cell-Counting Kit-8 (CCK-8, Dojindo, Kumamoto, Japan). […] Then, 100 μl from each well was moved to a 96-well plate, and the absorbance at 450 nm was measured with a microplate reader.

Test [3] has as its system tamoxifen-resistant MCF-7 cells. Nature of the test: Proliferation of tamoxifen-resistant MCF-7 cells. Particulars: 0, 5, 10 μM; in the presence of E2 and tamoxifen; 24 hours. The method, then: FIG. 14 is a diagram illustrating the suppression effect of the ERAP1-peptide on tamoxifen-resistant MCF-7 cells. […] The tamoxifen-resistant MCF-7 cells were treated with the ERAP1-peptide in each concentration (0, 5 and 10 μM). Then, immediately, the cells were stimulated with 10 nM E2 for 24 hours.
As the tamoxifen-resistant MCF-7 cell lines, those provided from Dr. Satoshi Inoue (Saitama Medical University Research Center for Genomic Medicine) under Material transfer agreement were offered for the experiment described below. The culture of tamoxifen-resistant MCF-7 cell was performed under the conditions recommended by the depositor. The tamoxifen-resistant MCF-7 cells were cultured in DMEM (Invitrogen, Carlsbad, Calif., USA) reinforced with 10% FBS (Nichirei Biosciences, Tokyo, Japan), 1% penicillin/streptomycin (Nacalai tesque, Kyoto, Japan), 1 μM tamoxifen (Sigma, St. Louis. Mo., USA).
Cell proliferation assay was evaluated using Cell-Counting Kit-8 (CCK-8, manufactured by Dojindo Company). First, tamoxifen-resistant MCF-7 cells were seeded in 2×10^4/well on a 48-well plate in DMEM/F12 culture medium containing phenol red and stood in a CO2 incubator for 24 hours. […] Then, 100 μl was moved to a 96-well plate from each well, and the absorbance at 450 nm was measured with a microplate reader.

Here are results for one compound from patent US9725490B2, “ERAP1-derived peptide and use thereof” (TOKUSHIMA UNIVERSITY, priority 2011, dated 2017).

For `CSCC[C@H](NC(=O)[C@H](CCC(N)=O)NC(=O)[C@H](CCCNC(=N)N)NC(=O)[C@H](CCCNC(=N)N)NC(=O)[C@H](CCCNC(=N)N)NC(=O)[C@H](CCCNC(=N)N)NC(=O)[C@H](CCCNC(=N)N)NC(=O)[C@H](CCCNC(=N)N)NC(=O)[C@H](CCCNC(=N)N)NC(=O)[C@H](CCCNC(=N)N)NC(=O)[C@H](CCCNC(=N)N)NC(=O)[C@H](CCCNC(=N)N)NC(=O)[C@@H](N)CCCNC(=N)N)C(=O)N[C@@H](CC(C)C)C(=O)N[C@@H](CO)C(=O)N[C@@H](CC(=O)O)C(=O)N[C@@H](CC(C)C)C(=O)N[C@H](C(=O)N[C@@H](CC(C)C)C(=O)N[C@@H](CCC(N)=O)C(=O)N[C@@H](CC(C)C)C(=O)N[C@@H](CCCNC(=N)N)C(=O)N[C@@H](CCC(N)=O)C(=O)N[C@@H](CCCNC(=N)N)C(=O)O)[C@@H](C)O` [ERAP1-peptide], in test [1], the “activations of AKT and MAPK” value is “activations of AKT and MAPK were suppressed”; the “binding of ERα and Shc and of ERα and IGF-1Rβ” value was “the binding of ERα and Shc and the binding of ERα and IGF-1Rβ were inhibited”. In test [2] (10 nM E2, up to 24 hours), the E2-dependent cell proliferation entry is on record as “dose-dependently suppressed the E2-dependent cell proliferation”. Also, in test [2] (5 μM and 10 μM, every 24 hours for four days), the “proliferation of the E2-dependent breast cancer cells, repeated administration” value was “completely suppressed”. Besides, the “duration of E2-dependent proliferation suppression effect” value in test [2] (10 μM single addition) was “complete E2-dependent proliferation suppression effect was recognized up to 24 hours”. Besides, the “cell proliferation of Tam-R MCF-7” value in test [3] is “remarkably suppressed the cell proliferation in dose-dependent manner”.
